Measured values taken from US8609602B2, “Cleaning solution” (priority 2010, dated 2013).
Read-outs that look alike come from different tables or passages of the source.

Experiments:
[1] = 6.7% TRIZMA in 67% aqueous 2-propanol; (10% w/v)
Procedure: Different detergent or detergent/base stock solutions were mixed in culture tubes, vortexed for 1 minute, and allowed to completely dissolve over an additional 30 minutes. The stock solutions were either used undiluted or diluted with additional water or alcohol in predetermined ratios. Diluted solutions were again mixed by vortexing for 1 minute and then allowing the solution to sit for 30 minutes.
A representative aliphatic acid, the fatty acid stearic acid, was added to the tube in a predetermined quantity between 10 mg/ml and 20 mg/ml. […] Solutions were then cooled to room temperature (RT) and after 6 hours, they were evaluated again for evidence of precipitation.
The following experiment is similar to Experiment 1, except that addition of a non-toxic buffer and/or a short-chained alcohol was investigated to attempt to improve upon the above results. Various bases and alcohols were tested. […] A representative non-toxic base, TRIZMA® (SIGMA-ALDRICH®, St. Louis, Mo.), was first tested (also known as TRIS, and Tris(hydroxymethyl)aminomethane). […] For this test, the amount of contaminating aliphatic acid, stearic acid, added to the solution was increased to 100 mg/ml.

[2] = MSDS / known values; cited from earlier work
[3] = assay type: physicochemical; details: for Solubility of added stearic acid in detergent solution (in words): stearic acid 10-20 mg/ml, overnight at 40° C.
Procedure: Detergents classified as ionic and non-ionic were tested, as well as carbohydrate and polyethylene glycol based non-ionic detergents.

## Tris(hydroxymethyl)aminomethane [TRIZMA base]
[1]
  Stearic acid completely solubilized by TRIZMA base without detergent: 100 mg/mL

## CCCCCCCCCCCC[N+](C)(C)[O-] [C-12 dimethyl amine oxide, n-dodecyl-N,N-dimethylamine-N-oxide]
[2]
  LD50: 5000 mg/kg
[3]; aqueous detergent solution
  Parts surfactant needed to dissolve stearic acid: 4 parts surfactant could dissolve 1 part stearic acid
[3]
  Solubility of added stearic acid in detergent solution (in words): Complete solubility at all concentrations of added stearic acid
[3]; listed as n-dodecyl-N,N-dimethylamine-N-oxide
  Solubility of added stearic acid in detergent solution (in words): quantitatively facilitated the solubilization
